Data as given in PubChem BioAssay (NCI).
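Growth conditions: 96-well plates. Treatment: test compound, 48 hours, 5 concentrations. Analysis: linear interpolation between bracketing concentrations; unreached endpoints set to highest concentration. The concentration for 50% growth inhibition is given as GI50. TGI denotes the concentration required for complete inhibition of growth.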

Key:
Assay in all cases: inhibition of tumour cell growth, NCI panel, 48 h; in the data active = GI50 below about 0.43 µM; inactive = the rest
A498 renal = system: A498 renal
COLO 205 colon = system: COLO 205 colon
HCC-2998 colon = system: HCC-2998 colon
HOP-62 NSCLC = system: HOP-62 NSCLC
KM12 colon = system: KM12 colon
LOX IMVI melanoma = system: LOX IMVI melanoma
NCI-H460 lung = system: NCI-H460 lung
SF-268 CNS = system: SF-268 CNS
SK-MEL-2 melanoma = system: SK-MEL-2 melanoma
T-47D breast = system: T-47D breast

O=C1OC2(c3ccccc3Oc3ccccc32)c2ccccc21
> 100 µM: TGI (A498 renal) | TGI (COLO 205 colon) | TGI (HCC-2998 colon) | TGI (HOP-62 NSCLC) | TGI (KM12 colon) | TGI (LOX IMVI melanoma) | TGI (NCI-H460 lung) | TGI (SF-268 CNS) | TGI (SK-MEL-2 melanoma)

O=C(c1ccccc1)c1c(C(=O)c2ccccc2)c(-c2ccccc2)c2c(-c3ccccc3)sc(-c3ccccc3)c2c1-c1ccccc1
> 100 µM: TGI (A498 renal) | TGI (COLO 205 colon) | TGI (HCC-2998 colon) | TGI (HOP-62 NSCLC) | TGI (KM12 colon) | TGI (LOX IMVI melanoma) | TGI (NCI-H460 lung) | TGI (SF-268 CNS)

O=C1C(=O)N(c2ccc(Cl)c(Cl)c2)C(=O)C(=O)C1c1nc2ccccc2o1
> 100 µM: TGI (COLO 205 colon) | TGI (HCC-2998 colon) | TGI (HOP-62 NSCLC) | TGI (KM12 colon) | TGI (LOX IMVI melanoma) | TGI (NCI-H460 lung) | TGI (SF-268 CNS) | TGI (SK-MEL-2 melanoma)

COC(=O)Nc1nc2ccccc2c(=O)[nH]1
> 100 µM: TGI (COLO 205 colon) | TGI (HCC-2998 colon) | TGI (HOP-62 NSCLC) | TGI (KM12 colon) | TGI (NCI-H460 lung) | TGI (SF-268 CNS) | TGI (SK-MEL-2 melanoma) | TGI (T-47D breast)

O=S1(=O)C[C@@H](O)[C@H](O)CS1
> 100 µM: TGI (A498 renal) | TGI (COLO 205 colon) | TGI (HCC-2998 colon) | TGI (HOP-62 NSCLC) | TGI (KM12 colon) | TGI (LOX IMVI melanoma) | TGI (NCI-H460 lung) | TGI (SF-268 CNS)

Cn1c(=O)c2[nH]c(CS(=O)(=O)Cc3nc4c([nH]3)c(=O)n(C)c(=O)n4C)nc2n(C)c1=O
> 100 µM: TGI (A498 renal) | TGI (COLO 205 colon) | TGI (HOP-62 NSCLC) | TGI (KM12 colon) | TGI (LOX IMVI melanoma) | TGI (NCI-H460 lung) | TGI (SF-268 CNS) | TGI (SK-MEL-2 melanoma) | TGI (T-47D breast)

CS(=O)c1ccc(COP(N)(=O)N(CCCl)CCCl)cc1 (stereo unspecified)
> 100 µM: TGI (A498 renal) | TGI (COLO 205 colon) | TGI (HCC-2998 colon) | TGI (HOP-62 NSCLC) | TGI (KM12 colon) | TGI (LOX IMVI melanoma) | TGI (NCI-H460 lung) | TGI (SF-268 CNS) | TGI (SK-MEL-2 melanoma)

COc1ccc2ccc([Se]c3ccc4ccc(OC)cc4c3)cc2c1
> 100 µM: TGI (A498 renal) | TGI (COLO 205 colon) | TGI (HCC-2998 colon) | TGI (HOP-62 NSCLC) | TGI (KM12 colon) | TGI (LOX IMVI melanoma) | TGI (NCI-H460 lung) | TGI (SF-268 CNS) | TGI (SK-MEL-2 melanoma)

O=c1cc(-c2ccccc2)nc2n1CCN2Cc1ccccc1
inactive: GI50 (A498 renal) 10.1 µM | GI50 (COLO 205 colon) 26.1 µM | GI50 (HOP-62 NSCLC) 63.8 µM | GI50 (KM12 colon) 35.7 µM | GI50 (LOX IMVI melanoma) 29.8 µM | GI50 (NCI-H460 lung) 36 µM | GI50 (SF-268 CNS) 46.9 µM | GI50 (SK-MEL-2 melanoma) 20.5 µM | GI50 (T-47D breast) 65 µM
50.5 µM: TGI (SK-MEL-2 melanoma)
34.2 µM: TGI (A498 renal)
> 100 µM: TGI (HOP-62 NSCLC) | TGI (KM12 colon) | TGI (LOX IMVI melanoma) | TGI (NCI-H460 lung) | TGI (SF-268 CNS) | TGI (T-47D breast)
68.1 µM: TGI (COLO 205 colon)

CCOC(=O)C(C)c1cc(C2(C)OCCO2)c(C)o1 (stereo unspecified)
> 100 µM: TGI (COLO 205 colon) | TGI (HCC-2998 colon) | TGI (HOP-62 NSCLC) | TGI (KM12 colon) | TGI (LOX IMVI melanoma) | TGI (NCI-H460 lung) | TGI (SF-268 CNS) | TGI (SK-MEL-2 melanoma)

COc1ccc2[nH]c(Cl)c(/C=C3/C(=O)N(C)c4ccccc43)c2c1
34.7 µM: TGI (KM12 colon)
inactive: GI50 (COLO 205 colon) 21.7 µM | GI50 (HOP-62 NSCLC) 92 µM | GI50 (KM12 colon) 16.9 µM | GI50 (LOX IMVI melanoma) > 100 µM | GI50 (NCI-H460 lung) > 100 µM | GI50 (SF-268 CNS) > 100 µM | GI50 (SK-MEL-2 melanoma) > 100 µM | GI50 (T-47D breast) 13.1 µM
> 100 µM: TGI (COLO 205 colon) | TGI (HOP-62 NSCLC) | TGI (LOX IMVI melanoma) | TGI (NCI-H460 lung) | TGI (SF-268 CNS) | TGI (SK-MEL-2 melanoma)
63.4 µM: TGI (T-47D breast)

O=C([CH-]C(=O)c1ccccc1)c1ccccc1.O=C([CH-]C(=O)c1ccccc1)c1ccccc1.[Nd+3].[OH-].[OH3+]
inactive: GI50 (A498 renal) 11 µM | GI50 (COLO 205 colon) 13.9 µM | GI50 (HCC-2998 colon) 9.11 µM | GI50 (HOP-62 NSCLC) 3.58 µM | GI50 (KM12 colon) 6.27 µM | GI50 (NCI-H460 lung) 6.18 µM | GI50 (SF-268 CNS) 6.51 µM | GI50 (SK-MEL-2 melanoma) 9.48 µM
25.3 µM: TGI (NCI-H460 lung)
26.6 µM: TGI (HCC-2998 colon)
39.6 µM: TGI (A498 renal)
27 µM: TGI (SK-MEL-2 melanoma)
49.6 µM: TGI (KM12 colon)
18.4 µM: TGI (HOP-62 NSCLC)
31.4 µM: TGI (COLO 205 colon)
34.9 µM: TGI (SF-268 CNS)

CC(C(=O)Oc1ccc2ccccc2c1-c1c(O)ccc2ccccc12)c1ccccc1 (stereo unspecified)
29.7 µM: TGI (SK-MEL-2 melanoma)
27.6 µM: TGI (NCI-H460 lung)
29.8 µM: TGI (HOP-62 NSCLC)
33.4 µM: TGI (COLO 205 colon)
28.9 µM: TGI (HCC-2998 colon)
29.4 µM: TGI (A498 renal)
26.1 µM: TGI (KM12 colon)

CCOC(=O)C1C(=O)c2ccccc2CN1Cc1ccccc1 (stereo unspecified)
> 100 µM: TGI (COLO 205 colon) | TGI (HCC-2998 colon) | TGI (HOP-62 NSCLC) | TGI (KM12 colon) | TGI (LOX IMVI melanoma) | TGI (NCI-H460 lung) | TGI (SF-268 CNS) | TGI (SK-MEL-2 melanoma)

c1ccc(N=C2c3ccccc3C3=NCCCN32)cc1
> 100 µM: TGI (A498 renal) | TGI (COLO 205 colon) | TGI (HCC-2998 colon) | TGI (HOP-62 NSCLC) | TGI (KM12 colon) | TGI (LOX IMVI melanoma) | TGI (NCI-H460 lung) | TGI (SF-268 CNS) | TGI (SK-MEL-2 melanoma)

CC[N+](CC)(CC)CCCn1c2c(c3ccccc3c1=O)C(=O)c1ccccc1-2
4.49 µM: TGI (NCI-H460 lung)
53.4 µM: TGI (SK-MEL-2 melanoma)
20.9 µM: TGI (HCC-2998 colon)
inactive: GI50 (COLO 205 colon) 23.1 µM | GI50 (HCC-2998 colon) 5.62 µM | GI50 (KM12 colon) 4.74 µM | GI50 (LOX IMVI melanoma) 4.63 µM | GI50 (NCI-H460 lung) 1.85 µM | GI50 (SF-268 CNS) 3.42 µM | GI50 (SK-MEL-2 melanoma) 21.8 µM | GI50 (T-47D breast) 98.1 µM
> 100 µM: TGI (COLO 205 colon) | TGI (KM12 colon) | TGI (LOX IMVI melanoma) | TGI (T-47D breast)
24.4 µM: TGI (SF-268 CNS)

COC(=O)c1nc(NC#N)[nH]c(=O)c1C
> 100 µM: TGI (A498 renal) | TGI (COLO 205 colon) | TGI (HCC-2998 colon) | TGI (HOP-62 NSCLC) | TGI (KM12 colon) | TGI (LOX IMVI melanoma) | TGI (NCI-H460 lung) | TGI (SF-268 CNS) | TGI (SK-MEL-2 melanoma)

O=C(CCCn1ccnc1[N+](=O)[O-])NCCn1ccnc1
> 100 µM: TGI (A498 renal) | TGI (COLO 205 colon) | TGI (HCC-2998 colon) | TGI (HOP-62 NSCLC) | TGI (KM12 colon) | TGI (NCI-H460 lung) | TGI (SF-268 CNS) | TGI (SK-MEL-2 melanoma) | TGI (T-47D breast)

CC1NOC(=O)C1N=Nc1ccccc1Cl (stereo unspecified)
49.3 µM: TGI (A498 renal)
> 100 µM: TGI (COLO 205 colon) | TGI (HCC-2998 colon) | TGI (HOP-62 NSCLC) | TGI (KM12 colon) | TGI (LOX IMVI melanoma) | TGI (NCI-H460 lung) | TGI (SF-268 CNS) | TGI (SK-MEL-2 melanoma)

CC(=O)Nc1ccc(C2[C@H]3C(=O)N(c4ccc(Cc5ccc(N6C(=O)[C@@H]7ON(c8ccccc8)C(c8ccc(NC(C)=O)cc8)[C@@H]7C6=O)cc5)cc4)C(=O)[C@H]3ON2c2ccccc2)cc1 (stereo partly specified)
> 100 µM: TGI (A498 renal) | TGI (COLO 205 colon) | TGI (HCC-2998 colon) | TGI (HOP-62 NSCLC) | TGI (KM12 colon) | TGI (LOX IMVI melanoma) | TGI (NCI-H460 lung) | TGI (SF-268 CNS) | TGI (SK-MEL-2 melanoma)

O=c1cc2ccccc2nn1-c1ccccc1Cl
> 100 µM: TGI (A498 renal) | TGI (COLO 205 colon) | TGI (HCC-2998 colon) | TGI (HOP-62 NSCLC) | TGI (KM12 colon) | TGI (LOX IMVI melanoma) | TGI (NCI-H460 lung) | TGI (SF-268 CNS) | TGI (SK-MEL-2 melanoma)
